Reference: ChEMBL document CHEMBL1201862, “PubChem BioAssay data set” (2004)
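Where inhibition never reached the appropriate level, the endpoint shown equals the highest concentration tested. Otherwise, values were interpolated linearly from a five-concentration, 48-hour dose response in 96-well plates. GI50 = concentration required for 50% inhibition of growth.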 The source made the active and inactive calls. No stated cut-off is given here; in the data, active = GI50 up to about 1.1 µM and inactive = higher.

What was measured:
Assay in all cases: DTP human tumour cell line panel, 48 h
[1] = tested on: A498
[2] = tested on: ACHN
[3] = tested on: CCRF-CEM
[4] = tested on: HCT-116
[5] = tested on: HL-60
[6] = tested on: IGROV-1
[7] = tested on: K562
[8] = tested on: KM12
[9] = tested on: NCI-H226
[10] = tested on: NCI-H460
[11] = tested on: OVCAR-8
[12] = tested on: SF-539
[13] = tested on: SK-MEL-2
[14] = tested on: SK-MEL-5
[15] = tested on: SW-620
[16] = tested on: U-251
[17] = tested on: LOX IMVI
[18] = tested on: SR

Measured: GI50

COc1ccc2c3c([nH]c2c1[N+](=O)[O-])C(C)N(C)CC3 (configuration not stated)
inactive: [1] > 100 µM | [2] > 100 µM | [3] 32.4 µM | [4] > 100 µM | [5] 39.6 µM | [6] > 100 µM | [7] 18.1 µM | [8] 51.6 µM | [9] > 100 µM | [10] > 100 µM | [11] > 100 µM | [12] > 100 µM | [13] > 100 µM | [14] 49.5 µM | [15] 29.6 µM | [16] > 100 µM

COC(=O)[C@@]12C(=O)C=CC(=O)C1C1C(=CC2C)OC2OC3(CCCCC3)OC21 (some centres not stated)
inactive: [1] 17.9 µM | [2] 16.9 µM | [3] 2.52 µM | [4] 15.9 µM | [5] 3.85 µM | [6] 18.1 µM | [7] 6.9 µM | [8] 20 µM | [17] 20.5 µM | [9] 18.8 µM | [10] 18.8 µM | [11] 16.4 µM | [13] 19 µM | [14] 19.3 µM | [15] 19.3 µM | [16] 17.7 µM

Cc1ccc(NC(=O)C2C(=O)N(c3ccc(C)c(C)c3)C(=O)C2N=N)cc1C (configuration not stated)
inactive: [1] > 100 µM | [2] 90.4 µM | [4] > 100 µM | [5] > 100 µM | [6] 97.1 µM | [8] > 100 µM | [9] > 100 µM | [10] 89.7 µM | [11] 99.5 µM | [12] > 100 µM | [13] > 100 µM | [14] 67 µM | [15] > 100 µM | [16] 95.9 µM

Cc1c(C(=O)/C=C/c2ccccc2O)c(=O)n(-c2ccccc2)n1C
inactive: [1] 27.5 µM | [2] 19 µM | [3] 9.55 µM | [4] 16.5 µM | [6] 42.1 µM | [8] > 10 µM | [17] 16.9 µM | [9] 33.5 µM | [10] 12.9 µM | [11] 15.6 µM | [12] 19.8 µM | [13] 18 µM | [14] 12.3 µM | [15] 15.1 µM | [16] 12.2 µM

O=C(O)c1c(-c2cccc3ccccc23)sc(-c2cccc3ccccc23)c1C(=O)O
inactive: [2] > 100 µM | [3] 22.1 µM | [4] > 100 µM | [5] > 100 µM | [6] > 100 µM | [7] 90.8 µM | [8] 36.6 µM | [17] > 100 µM | [9] > 100 µM | [10] > 100 µM | [11] > 100 µM | [12] > 100 µM | [13] 35.9 µM | [14] > 100 µM | [18] 47.9 µM | [15] > 100 µM | [16] > 100 µM

O=C(N/C(=C\c1ccc(/C=C(\NC(=O)c2ccccc2)c2nc3cc(Cl)ccc3[nH]2)cc1)c1nc2cc(Cl)ccc2[nH]1)c1ccccc1
inactive: [1] 22.9 µM | [2] 26.9 µM | [3] 5.31 µM | [4] 17.7 µM | [6] 46 µM | [7] 12 µM | [8] 14 µM | [17] 25.9 µM | [9] > 100 µM | [10] 29.7 µM | [11] 27.7 µM | [12] 20.6 µM | [13] 36.7 µM | [14] 17.4 µM | [15] 55 µM | [16] 39.6 µM

O=C(CO)C1CC2C=CC1C2 (configuration not stated)
inactive: [1] > 100 µM | [2] > 100 µM | [3] > 100 µM | [4] > 100 µM | [5] > 100 µM | [6] > 100 µM | [7] > 100 µM | [8] > 100 µM | [17] > 100 µM | [10] > 100 µM | [11] > 100 µM | [12] > 100 µM | [13] > 100 µM | [14] > 100 µM | [15] > 100 µM | [16] > 100 µM

CCN(CC)C(=O)C/C(C)=N/NC(=O)c1ccncc1
inactive: [3] > 100 µM | [4] > 100 µM | [5] > 100 µM | [6] > 100 µM | [7] > 100 µM | [8] > 100 µM | [17] > 100 µM | [9] > 100 µM | [10] > 100 µM | [11] > 100 µM | [12] > 100 µM | [13] > 100 µM | [14] > 100 µM | [15] > 100 µM | [16] > 100 µM

CC(=O)[C@@]1(C)CC2(CCN(C)CC2)OC1C (some centres not stated)
inactive: [1] > 100 µM | [2] > 100 µM | [4] > 100 µM | [6] > 100 µM | [7] > 100 µM | [8] > 100 µM | [17] > 100 µM | [9] > 100 µM | [10] > 100 µM | [11] > 100 µM | [12] > 100 µM | [14] > 100 µM | [15] > 100 µM | [16] > 100 µM

c1ccc2c(c1)OCCOCCOc1ccccc1OCCO2
inactive: [1] > 100 µM | [2] 51.9 µM | [3] 34.4 µM | [4] 40.5 µM | [5] 24.8 µM | [6] 71.8 µM | [7] 28.4 µM | [8] 35.2 µM | [17] 51.9 µM | [9] 79.6 µM | [10] 36.3 µM | [11] 78 µM | [12] > 100 µM | [13] 90.4 µM | [14] 68.2 µM | [15] 26.9 µM | [16] 34.4 µM

O=C1CC(c2ccccc2)NCN1 (configuration not stated)
inactive: [1] > 100 µM | [2] > 100 µM | [3] > 100 µM | [4] > 100 µM | [5] > 100 µM | [6] > 100 µM | [7] > 100 µM | [8] > 100 µM | [17] > 100 µM | [9] > 100 µM | [11] > 100 µM | [13] > 100 µM | [14] > 100 µM | [18] > 100 µM | [15] > 100 µM | [16] > 100 µM

COc1c(O)c2c3c(cc(C)cc3c1C(C)C)OC2
inactive: [2] > 100 µM | [3] > 100 µM | [4] > 100 µM | [5] > 100 µM | [6] > 100 µM | [7] > 100 µM | [8] > 100 µM | [17] > 100 µM | [9] > 100 µM | [10] > 100 µM | [11] > 100 µM | [12] > 100 µM | [13] > 100 µM | [14] > 100 µM | [18] > 100 µM | [15] > 100 µM | [16] > 100 µM

O=C(CSc1nnc[nH]1)C[P+](c1ccccc1)(c1ccccc1)c1ccccc1
inactive: [2] > 100 µM | [3] 78.2 µM | [5] 31.7 µM | [6] > 100 µM | [7] 43.4 µM | [8] > 100 µM | [17] > 100 µM | [10] 94.4 µM | [11] > 100 µM | [12] > 100 µM | [13] > 100 µM | [14] > 100 µM | [15] > 100 µM
